Values of other authors, collected in patent US11426447B2, “Neuregulin for the treatment of tumors of the nervous system” (LEIBNIZ-INSTITUT FUR …, priority 2016, dated 2022).

Test system: schwannoma
Settings: cited from earlier work

bevacizumab
efficacy for schwannoma growth control and hearing improvement (NF2 patients (Plotkin et al., 2009)): limited efficacy
side effects (human, in vivo): severe side effects
